Article PMC10177510, “A Multicenter, Open-Label, Phase I/II Study of FN-1501 in Patients with Advanced Solid Tumors” (Cancers, 2023)
Values after ≈ are worked out from the molar mass of the structure shown.

Experiments:
[1] = Plasma pharmacokinetics of FN-1501 and metabolite M3 in patients (LC/MS-MS, noncompartmental); type: in vivo, human; details: for AUClast / AUC∞ / CL / Cmax / MRT∞ / Vss / Vz / t1/2 / tmax: mean; for Clearance: discussion; for Css,u: 260 mg
Method: For PK assessment, blood samples were collected pre-dose and 0.083, 0.25, 0.5, 1, 2, 4, 6, 8, 12, 24, and 48 h post-dose on Cycle 1, Day 1, and pre-dose on Cycle 2, Day 1. Plasma concentrations of FN-1501 and its metabolite M3 were analyzed at KCAS in Shawnee, KS, using a validated liquid chromatography/tandem mass spectrometry method. Primary pharmacokinetic (PK) endpoints were derived from FN-1501 and M3 concentration–time profiles and were analyzed using standard noncompartmental methods of analysis (Phoenix version 8).

MOLM-13 = tested on: MOLM-13; parameters: method as in data on file, Fosun Pharma; details: ref data on file, Fosun Pharma; cited from earlier work

SMILES: CN1CCN(Cc2ccc(NC(=O)c3[nH]ncc3Nc3ncnc4[nH]ccc34)cc2)CC1 [FN-1501]
- AUClast ([1]; 2.5 mg IV): 29.4 ± 11.9 ng·h/mL
- AUC∞ ([1]; 2.5 mg IV): 32.4 ± 13.1 ng·h/mL
- CL ([1]; 2.5 mg IV): 85.1 ± 26.8 L/h
- Cmax ([1]; 2.5 mg IV): 12.0 ± 1.42 ng/mL
- MRT∞ ([1]; 2.5 mg IV): 11.7 ± 4.59 h
- Vss ([1]; 2.5 mg IV): 913 ± 206 L
- Vz ([1]; 2.5 mg IV): 1510 ± 421 L
- t1/2 ([1]; 2.5 mg IV): 12.8 ± 3.5 h
- tmax ([1]; 2.5 mg IV): 1.2 ± 0.10 h
- AUClast ([1]; 5 mg IV): 52.1 ± 18.2 ng·h/mL
- AUC∞ ([1]; 5 mg IV): 56.5 ± 18.2 ng·h/mL
- CL ([1]; 5 mg IV): 93.9 ± 25.2 L/h
- Cmax ([1]; 5 mg IV): 25.5 ± 17.3 ng/mL
- MRT∞ ([1]; 5 mg IV): 13.7 ± 3.74 h
- Vss ([1]; 5 mg IV): 1320 ± 619 L
- Vz ([1]; 5 mg IV): 2570 ± 932 L
- t1/2 ([1]; 5 mg IV): 18.6 ± 2.34 h
- tmax ([1]; 5 mg IV): 1.1 ± 0.02 h
- AUClast ([1]; 10 mg IV): 119 ± 32.6 ng·h/mL
- AUC∞ ([1]; 10 mg IV): 129 ± 41.3 ng·h/mL
- CL ([1]; 10 mg IV): 84.7 ± 32.4 L/h
- Cmax ([1]; 10 mg IV): 36.9 ± 17.5 ng/mL
- MRT∞ ([1]; 10 mg IV): 12.5 ± 2.84 h
- Vss ([1]; 10 mg IV): 1110 ± 664 L
- Vz ([1]; 10 mg IV): 1720 ± 925 L
- t1/2 ([1]; 10 mg IV): 13.7 ± 2.68 h
- tmax ([1]; 10 mg IV): 1.2 ± 0.15 h
- AUClast ([1]; 15 mg IV): 138 ± 10.8 ng·h/mL
- AUC∞ ([1]; 15 mg IV): 153 ± 8.45 ng·h/mL
- CL ([1]; 15 mg IV): 98.5 ± 5.29 L/h
- Cmax ([1]; 15 mg IV): 35.6 ± 2.15 ng/mL
- MRT∞ ([1]; 15 mg IV): 16.1 ± 2.64 h
- Vss ([1]; 15 mg IV): 1600 ± 331 L
- Vz ([1]; 15 mg IV): 2370 ± 536 L
- t1/2 ([1]; 15 mg IV): 16.6 ± 3 h
- tmax ([1]; 15 mg IV): 1.2 ± 0.14 h
- AUClast ([1]; 22.5 mg IV): 251 ± 87.8 ng·h/mL
- AUC∞ ([1]; 22.5 mg IV): 239 ± 55.4 ng·h/mL
- CL ([1]; 22.5 mg IV): 96.9 ± 22.5 L/h
- Cmax ([1]; 22.5 mg IV): 65.8 ± 24.5 ng/mL
- MRT∞ ([1]; 22.5 mg IV): 16.4 ± 1.01 h
- Vss ([1]; 22.5 mg IV): 1600 ± 466 L
- Vz ([1]; 22.5 mg IV): 2570 ± 663 L
- t1/2 ([1]; 22.5 mg IV): 18.3 ± 0.49 h
- tmax ([1]; 22.5 mg IV): 1.2 ± 0.19 h
- AUClast ([1]; 30 mg IV): 297 ± 55.8 ng·h/mL
- AUC∞ ([1]; 30 mg IV): 341 ± 47.1 ng·h/mL
- CL ([1]; 30 mg IV): 89.1 ± 13.3 L/h
- Cmax ([1]; 30 mg IV): 87.8 ± 37.5 ng/mL
- MRT∞ ([1]; 30 mg IV): 13.4 ± 8.49 h
- Vss ([1]; 30 mg IV): 1130 ± 619 L
- Vz ([1]; 30 mg IV): 1500 ± 786 L
- t1/2 ([1]; 30 mg IV): 12.4 ± 7.43 h
- tmax ([1]; 30 mg IV): 1.1 ± 0.11 h
- AUClast ([1]; 40 mg IV): 437 ± 77.2 ng·h/mL
- AUC∞ ([1]; 40 mg IV): 499 ± 122 ng·h/mL
- CL ([1]; 40 mg IV): 83.6 ± 18.6 L/h
- Cmax ([1]; 40 mg IV): 128 ± 41.9 ng/mL
- MRT∞ ([1]; 40 mg IV): 18.3 ± 6.19 h
- Vss ([1]; 40 mg IV): 1450 ± 185 L
- Vz ([1]; 40 mg IV): 2160 ± 195 L
- t1/2 ([1]; 40 mg IV): 18.7 ± 5.68 h
- tmax ([1]; 40 mg IV): 1.1 ± 0.044 h
- AUClast ([1]; 54 mg IV): 773 ± 180 ng·h/mL
- AUC∞ ([1]; 54 mg IV): 868 ± 181 ng·h/mL
- CL ([1]; 54 mg IV): 63.9 ± 12.4 L/h
- Cmax ([1]; 54 mg IV): 323 ± 55.6 ng/mL
- MRT∞ ([1]; 54 mg IV): 16.9 ± 7.34 h
- Vss ([1]; 54 mg IV): 1080 ± 516 L
- Vz ([1]; 54 mg IV): 1820 ± 740 L
- t1/2 ([1]; 54 mg IV): 19.6 ± 6.44 h
- tmax ([1]; 54 mg IV): 1.1 ± 0.05 h
- AUClast ([1]; 72 mg IV): 742 ± 275 ng·h/mL
- AUC∞ ([1]; 72 mg IV): 823 ± 292 ng·h/mL
- CL ([1]; 72 mg IV): 94.2 ± 28.8 L/h
- Cmax ([1]; 72 mg IV): 161 ± 67.7 ng/mL
- MRT∞ ([1]; 72 mg IV): 16.8 ± 1.12 h
- Vss ([1]; 72 mg IV): 1580 ± 489 L
- Vz ([1]; 72 mg IV): 2370 ± 833 L
- t1/2 ([1]; 72 mg IV): 17.2 ± 1.58 h
- tmax ([1]; 72 mg IV): 1.3 ± 0.24 h
- AUClast ([1]; 96 mg IV): 1420 ± 236 ng·h/mL
- AUC∞ ([1]; 96 mg IV): 1650 ± 229 ng·h/mL
- CL ([1]; 96 mg IV): 59.1 ± 8.20 L/h
- Cmax ([1]; 96 mg IV): 494 ± 289 ng/mL
- MRT∞ ([1]; 96 mg IV): 15.4 ± 6.58 h
- Vss ([1]; 96 mg IV): 921 ± 425 L
- Vz ([1]; 96 mg IV): 1410 ± 682 L
- t1/2 ([1]; 96 mg IV): 16.1 ± 6.28 h
- tmax ([1]; 96 mg IV): 1.1 ± 0.13 h
- AUClast ([1]; 128 mg IV): 1730 ± 850 ng·h/mL
- AUC∞ ([1]; 128 mg IV): 1980 ± 1120 ng·h/mL
- CL ([1]; 128 mg IV): 79.9 ± 4.21 L/h
- Cmax ([1]; 128 mg IV): 533 ± 344 ng/mL
- MRT∞ ([1]; 128 mg IV): 18.1 ± 5.53 h
- Vss ([1]; 128 mg IV): 1320 ± 473 L
- Vz ([1]; 128 mg IV): 1790 ± 366 L
- t1/2 ([1]; 128 mg IV): 17.8 ± 7.00 h
- tmax ([1]; 128 mg IV): 1.1 ± 0.11 h
- AUClast ([1]; 170 mg IV): 3340 ± 1500 ng·h/mL
- AUC∞ ([1]; 170 mg IV): 3760 ± 1980 ng·h/mL
- CL ([1]; 170 mg IV): 56.5 ± 31.5 L/h
- Cmax ([1]; 170 mg IV): 955 ± 330 ng/mL
- MRT∞ ([1]; 170 mg IV): 15.8 ± 7.89 h
- Vss ([1]; 170 mg IV): 757 ± 218 L
- Vz ([1]; 170 mg IV): 1120 ± 419 L
- t1/2 ([1]; 170 mg IV): 15.0 ± 3.64 h
- tmax ([1]; 170 mg IV): 1.3 ± 0.26 h
- Clearance ([1]; 170 mg): 50 L/h
- AUClast ([1]; 226 mg IV): 5620 ± 1390 ng·h/mL
- AUC∞ ([1]; 226 mg IV): 6070 ± 1670 ng·h/mL
- CL ([1]; 226 mg IV): 39.4 ± 0.17 L/h
- Cmax ([1]; 226 mg IV): 1180 ± 232 ng/mL
- MRT∞ ([1]; 226 mg IV): 15.2 ± 3.92 h
- Vss ([1]; 226 mg IV): 569 ± 30.8 L
- Vz ([1]; 226 mg IV): 787 ± 139 L
- t1/2 ([1]; 226 mg IV): 14.2 ± 2.2 h
- tmax ([1]; 226 mg IV): 1.2 ± 0.02 h
- Clearance ([1]; 226 mg): 38 L/h
- Css,u ([1]; 48 h dosing interval): 37 ng/mL
- Css,u ([1]; 72 h dosing interval): 25 ng/mL
- AUC increase with dose ([1]; 2.5 to 226 mg): greater than dose-proportional
- Cmax increase with dose ([1]; 2.5 to 226 mg): roughly dose-proportional
- Drug concentration at end of dosing interval ([1]; 48 h post-dose): approximately 20 ng/mL
- IC50 (MOLM-13): 5.2 ng/mL (≈ 0.0121 µM)
